What was measured:
[1] = test system: RS4;11 (BCL-2 dependent acute lymphoblastic leukemia cell line); test: RS4;11 Cell Proliferation Assay; type: cell-based; conditions: Homo sapiens, RS4-11, RS4;11 cells, read-out: Cellular proliferation assay (IC50, nM) RS4
Method in brief: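 RS4;11 cells, 50,000 per well in RPMI-1640 with 10% FBS, treated 48 h at 37 °C with a 10-point dilution series topping at 1 μM. Viability read by CellTiter-Glo ATP luminescence; mean IC50 reported.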

[2] = biological target: recombinant human Bcl-2-G101V protein (Homo sapiens (Human), UniProt P10415, G101V); test: Bcl-2-G101V TR-FRET Assay; type: binding; conditions: Bcl-2 G101V mutant, TR-FRET; read-out: Biochemical assay (IC50, nM) Bcl-2 G101V
Method in brief: (§1)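 Compounds were titrated at increasing concentrations against the Bcl-2-G101V–ligand interaction. TR-FRET signals were then read (ex 337 nm; em 490/520 nm). Percent inhibition was derived from the 490-to-520 nm ratio, and IC50 from a four-parameter logistic equation.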

[3] = test system: recombinant human Bcl-2-G101V protein; test: Bcl-2-G101V TR-FRET Assay; type: binding; conditions: ratio of biochemical IC50 Bcl-2 G101V / Bcl-2 WT
Method in brief: as §1

[4] = test system: BCL-2 G101V knock-in cell line H96 (derive from RS4;11); test: Bcl 2-G101V Knock-In RS4;11 Cell Proliferation Assay; type: cell-based; conditions: Homo sapiens, RS4;11 Bcl-2 G101V knock-in clone H96, 48 hrs, CellTiter-GLO, read-out: Cellular proliferation assay (IC50, nM) RS4
Method in brief: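 H96, a CRISPR-generated RS4;11 clone carrying BCL2-G101V knock-in (WES/RNA-seq validated), seeded 50,000 per well and exposed 48 h at 37 °C to 10-point dilutions topping at 1 or 10 μM. Viability by CellTiter-Glo luminescence; mean IC50.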

[5] = biological target: Recombinant human Bcl-2 protein (Homo sapiens (Human), UniProt P10415); test: Bcl-2 TR-FRET Assay; type: binding; conditions: Bcl-2 wild type, TR-FRET; read-out: Biochemical assay (IC50, nM) Bcl-2 WT
Method in brief: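 0.05 nM recombinant Bcl-2 preincubated 0.5 h at room temperature with 10-point compound dilutions (top final 1, 0.1, 0.02 or 0.01 uM) in pH 7.5 phosphate buffer. FITC-Bak peptide (0.5 nM) and anti-6His Tb cryptate then added for 1 h. TR-FRET read; IC50 from four-parameter logistic fit.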

Structure (SMILES)	IC50 [1]	IC50 [2]	Ratio of Bcl-2 G101V/WT [3]	IC50 [4]	IC50 [5]
COc1ccc(CN2CCN(C3CC4(C3)CN(c3ccc(C(=O)NS(=O)(=O)c5ccc(NCC6CCOCC6)c([N+](=O)[O-])c5)c(Oc5cnc6[nH]ccc6c5)c3)C4)[C@H](c3ccccc3C(C)C)C2)cc1OC [Example 173, (R)-2-((1H-pyrrolo[2,3-b]pyridin-5-yl)oxy)-4-(6-(4-(3,4-dimethoxybenzyl)-2-(2-isopropylphenyl)piperazin-1-yl)-2-azaspiro[3.3]heptan-2-yl)-N-((3-nitro-4-(((tetrahydro-2H-pyran-4-yl)methyl)amino)phenyl)sulfonyl) benzamide]	0.18 nM	0.11 nM	6.5	0.6 nM	0.017 nM
COc1cc(CN2CCN(C3CC4(C3)CN(c3ccc(C(=O)NS(=O)(=O)c5ccc(NC[C@H]6CC[C@](C)(O)CC6)c([N+](=O)[O-])c5)c(Oc5cnc6[nH]ccc6c5)c3)C4)[C@H](c3ccccc3C(C)C)C2)cc2occc12 [Example 331, 2-((1H-pyrrolo[2,3-b]pyridin-5-yl)oxy)-N-((4-((((1r,4r)-4-hydroxy-4-methylcyclohexyl)methyl)amino)-3-nitrophenyl)sulfonyl)-4-(6-((R)-2-(2-isopropylphenyl)-4-((4-methoxybenzofuran-6-yl)methyl)piperazin-1-yl)-2-azaspiro[3.3]heptan-2-yl)benzamide]	0.16 nM	0.62 nM	2.1	0.69 nM	0.29 nM
COc1c(Cl)cccc1CN1CCN(C2CC3(CCN(c4ccc(C(=O)NS(=O)(=O)c5ccc(NC[C@H]6CC[C@](C)(O)CC6)c([N+](=O)[O-])c5)c(Oc5cnc6[nH]ccc6c5)c4)CC3)C2)C(c2ccccc2C(C)C)C1 (stereo partly drawn) [Example 119, 2-((1H-pyrrolo[2,3-b]pyridin-5-yl)oxy)-4-(2-(4-(3-chloro-2-methoxybenzyl)-2-(2-isopropylphenyl)piperazin-1-yl)-7-azaspiro[3.5]nonan-7-yl)-N-((4-((((1r,4r)-4-hydroxy-4-methylcyclohexyl)methyl)amino)-3-nitrophenyl)sulfonyl)benzamide]	1.44 nM	3.1 nM	8.5	14.4 nM	0.37 nM
COc1ccc(CN2CCN(C3CC4(C3)CN(c3ccc(C(=O)NS(=O)(=O)c5ccc(NC[C@H]6CC[C@](C)(O)CC6)c([N+](=O)[O-])c5)c(Oc5cnc6[nH]ccc6c5)c3)C4)[C@H](c3ccccc3C(C)C)C2)cn1 [Example 254, 2-((1H-pyrrolo[2,3-b]pyridin-5-yl)oxy)-N-((4-((((1r,4r)-4-hydroxy-4-methylcyclohexyl)methyl)amino)-3-nitrophenyl)sulfonyl)-4-(6-((R)-2-(2-isopropylphenyl)-4-((6-methoxypyridin-3-yl)methyl)piperazin-1-yl)-2-azaspiro[3.3]heptan-2-yl)benzamide]	0.09 nM	0.067 nM	3.9	0.25 nM	0.017 nM
C#Cc1ccc(CN2CCN(C3CC4(CCN(c5ccc(C(=O)NS(=O)(=O)c6ccc(NC[C@H]7CC[C@](C)(O)CC7)c([N+](=O)[O-])c6)c(Oc6cnc7[nH]ccc7c6)c5)CC4)C3)C(c3ccccc3C(C)C)C2)cc1 (stereo partly drawn) [Example 142, 2-((1H-pyrrolo[2,3-b]pyridin-5-yl)oxy)-4-(2-(4-(4-ethynylbenzyl)-2-(2-isopropylphenyl)piperazin-1-yl)-7-azaspiro[3.5]nonan-7-yl)-N-((4-((((1r,4r)-4-hydroxy-4-methylcyclohexyl)methyl)amino)-3-nitrophenyl)sulfonyl)benzamide]	0.795 nM	3 nM	5.3	6.22 nM	0.56 nM
CC(C)c1ccccc1C1CN(Cc2ccc(OC3CC3)cc2)CCN1C1CC2(CCN(c3ccc(C(=O)NS(=O)(=O)c4ccc(NC[C@H]5CC[C@](C)(O)CC5)c([N+](=O)[O-])c4)c(Oc4cnc5[nH]ccc5c4)c3)CC2)C1 (stereo partly drawn) [Example 172, 2-((1H-pyrrolo[2,3-b]pyridin-5-yl)oxy)-4-(2-(4-(4-cyclopropoxybenzyl)-2-(2-isopropylphenyl)piperazin-1-yl)-7-azaspiro[3.5]nonan-7-yl)-N-((4-((((1r,4r)-4-hydroxy-4-methylcyclohexyl)methyl)amino)-3-nitrophenyl)sulfonyl)benzamide]	0.43 nM	1.9 nM	5.5	1.64 nM	0.35 nM
CCc1ccc(CN2CCN(C3CC4(CCN(c5ccc(C(=O)NS(=O)(=O)c6ccc(NC[C@H]7CC[C@](C)(O)CC7)c([N+](=O)[O-])c6)c(Oc6cnc7[nH]cc(F)c7c6)c5)CC4)C3)[C@H](c3ccccc3C(C)C)C2)cc1OC [Example 266, 4-(2-((R)-4-(4-ethyl-3-methoxybenzyl)-2-(2-isopropylphenyl)piperazin-1-yl)-7-azaspiro[3.5]nonan-7-yl)-2-((3-fluoro-1H-pyrrolo[2,3-b]pyridin-5-yl)oxy)-N-((4-((((1r,4r)-4-hydroxy-4-methylcyclohexyl)methyl)amino)-3-nitrophenyl)sulfonyl) benzamide]	0.22 nM	4.1 nM	3	0.66 nM	1.4 nM
[2H]C([2H])(c1ccc(OC)c(OC)c1)N1CCN(C2CC3(CCN(c4ccc(C(=O)NS(=O)(=O)c5ccc(NC[C@H]6CC[C@](C)(O)CC6)c([N+](=O)[O-])c5)c(Oc5cnc6[nH]ccc6c5)c4)CC3)C2)C(c2ccccc2C(C)C)C1 (stereo partly drawn) [Example 193]	0.26 nM	0.23 nM	3.4	0.8 nM	0.068 nM
COc1ccc(CN2CCN(C3CC4(CCN(c5ccc(C(=O)NS(=O)(=O)c6ccc(NCC7CCOCC7)c([N+](=O)[O-])c6)c(Oc6cnc7[nH]ccc7c6)c5)CC4)C3)[C@H](c3ccccc3C(C)C)C2)cc1 (single isomer, unassigned) [Example 69, (R or S)-2-((1H-pyrrolo[2,3-b]pyridin-5-yl)oxy)-4-(2-(2-(2-isopropylphenyl)-4-(4-methoxybenzyl)piperazin-1-yl)-7-azaspiro[3.5]nonan-7-yl)-N-((3-nitro-4-(((tetrahydro-2H-pyran-4-yl)methyl)amino)phenyl)sulfonyl) benzamide]	0.47 nM	0.37 nM	8.9	2 nM	0.041 nM
COc1cc(CN2CCN(C3CC4(C3)CN(c3ccc(C(=O)NS(=O)(=O)c5ccc(NC[C@H]6CC[C@](C)(O)CC6)c([N+](=O)[O-])c5)c(Oc5cnc6[nH]cc(F)c6c5)c3)C4)[C@H](c3ccccc3C(C)C)C2)cc2c1OCCC2(C)C [Example 333, 2-((3-fluoro-1H-pyrrolo[2,3-b]pyridin-5-yl)oxy)-N-((4-((((1r,4r)-4-hydroxy-4-methylcyclohexyl)methyl)amino)-3-nitrophenyl)sulfonyl)-4-(6-((R)-2-(2-isopropylphenyl)-4-((8-methoxy-4,4-dimethylchroman-6-yl)methyl)piperazin-1-yl)-2-azaspiro[3.3]heptan-2-yl) benzamide]	0.13 nM	0.37 nM	3.2	0.26 nM	0.11 nM
COc1ccc(CN2CCN(C3CC4(CCN(c5ccc(C(=O)NS(=O)(=O)c6ccc(NC[C@H]7CC[C@](C)(O)CC7)c([N+](=O)[O-])c6)c(Oc6cnc7[nH]cc(F)c7c6)c5)CC4)C3)C(c3ccccc3C(C)C)C2)cc1OC(F)F (stereo partly drawn) [Example 159, 4-(2-(4-(3-(difluoromethoxy)-4-methoxybenzyl)-2-(2-isopropylphenyl)piperazin-1-yl)-7-azaspiro[3.5]nonan-7-yl)-2-((3-fluoro-1H-pyrrolo[2,3-b]pyridin-5-yl)oxy)-N-((4-((((1r,4r)-4-hydroxy-4-methylcyclohexyl)methyl)amino)-3-nitrophenyl)sulfonyl) benzamide]	0.386 nM	0.4 nM	3.4	1.71 nM	0.12 nM
COc1cc(CN2CCN(C3CC4(CCN(c5ccc(C(=O)NS(=O)(=O)c6ccc(NC[C@H]7CC[C@](C)(O)CC7)c([N+](=O)[O-])c6)c(Oc6cnc7[nH]ccc7c6)c5)CC4)C3)C(c3ccccc3C(C)C)C2)cc(Cl)c1OC (stereo partly drawn) [Example 148, 2-((1H-pyrrolo[2,3-b]pyridin-5-yl)oxy)-4-(2-(4-(3-chloro-4,5-dimethoxybenzyl)-2-(2-isopropylphenyl)piperazin-1-yl)-7-azaspiro[3.5]nonan-7-yl)-N-((4-((((1r,4r)-4-hydroxy-4-methylcyclohexyl)methyl)amino)-3-nitrophenyl)sulfonyl)benzamide]	0.46 nM	2 nM	3.6	2.81 nM	0.56 nM

— patent publication US20240376097A1, “BCL-2 Inhibitor” (BeiGene Ltd., priority 2020, published 2024)
